Values quoted from earlier work in patent US20150246043A1, “ORAL DOSAGE FORMS FOR MODIFIED RELEASE COMPRISING RUXOLITINIB” (ratiopharm GmbH, priority 2012, published 2015).

Assays:
[1] = reported for Ruxolitinib and especially its pharmaceutically acceptable salts like the phosphate salt (WO 2008/157208)
[2] = class I = high permeability, high solubility

SMILES: N#CC[C@H](C1CCCC1)n1cc(-c2ncnc3[nH]ccc23)cn1 [Ruxolitinib, (3R)-3-cyclopentyl-3-[4-(7H-pyrrolo[2,3-d]pyrimidin-4-yl)pyrazol-1-yl]propanenitrile]
- aqueous solubility [1]: very high
- Biopharmaceutics Classification System class [2]: class I
